For orientation: GI50 means the concentration that inhibits growth by half. A higher GI50 goes with lower sensitivity of the cells.

SMILES strings stand for the structures. Like-named read-outs stand apart in the source and are kept apart here. A value given as a limit tells only on which side of the number the result lay.

The record followed here is patent publication US20260297060A1, “COMPOUNDS FOR THE DEGRADATION OF MUTANT BRAF” (C4 THERAPEUTICS, INC., priority 2023, published 2026).

For assay [1], the target named is T1, BRAF V600E (Homo sapiens, UniProt P15056+Q96SW2, V600E).
T1 construct: knock-in of the HiBiT tag to the endogenous BRAF V600E locus; host or cells: A375.10 (A375 clonal line, CRISPR HiBiT knock-in at the endogenous BRAF V600E locus)
T1 sequence (P15056 whole entry V600E): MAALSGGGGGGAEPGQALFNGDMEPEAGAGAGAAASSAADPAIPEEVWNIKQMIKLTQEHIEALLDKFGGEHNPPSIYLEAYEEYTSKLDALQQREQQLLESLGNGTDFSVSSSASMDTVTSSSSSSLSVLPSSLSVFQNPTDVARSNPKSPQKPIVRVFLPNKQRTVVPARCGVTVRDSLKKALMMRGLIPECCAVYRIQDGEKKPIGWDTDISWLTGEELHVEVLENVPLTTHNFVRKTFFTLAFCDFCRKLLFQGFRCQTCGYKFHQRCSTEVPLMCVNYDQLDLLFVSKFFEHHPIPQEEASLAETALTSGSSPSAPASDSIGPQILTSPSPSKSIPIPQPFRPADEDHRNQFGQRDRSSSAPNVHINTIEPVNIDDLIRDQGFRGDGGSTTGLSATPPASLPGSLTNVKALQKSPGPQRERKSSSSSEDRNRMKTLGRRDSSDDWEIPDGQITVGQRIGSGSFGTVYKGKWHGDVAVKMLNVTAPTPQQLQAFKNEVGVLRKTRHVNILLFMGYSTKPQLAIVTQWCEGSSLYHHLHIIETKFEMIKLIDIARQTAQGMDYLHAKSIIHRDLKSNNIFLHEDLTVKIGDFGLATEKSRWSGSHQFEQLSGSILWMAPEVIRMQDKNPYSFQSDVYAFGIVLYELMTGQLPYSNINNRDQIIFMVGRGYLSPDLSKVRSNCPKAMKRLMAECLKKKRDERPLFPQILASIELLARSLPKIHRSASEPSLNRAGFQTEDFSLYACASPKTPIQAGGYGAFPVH
T1 sequence (Q96SW2 whole entry): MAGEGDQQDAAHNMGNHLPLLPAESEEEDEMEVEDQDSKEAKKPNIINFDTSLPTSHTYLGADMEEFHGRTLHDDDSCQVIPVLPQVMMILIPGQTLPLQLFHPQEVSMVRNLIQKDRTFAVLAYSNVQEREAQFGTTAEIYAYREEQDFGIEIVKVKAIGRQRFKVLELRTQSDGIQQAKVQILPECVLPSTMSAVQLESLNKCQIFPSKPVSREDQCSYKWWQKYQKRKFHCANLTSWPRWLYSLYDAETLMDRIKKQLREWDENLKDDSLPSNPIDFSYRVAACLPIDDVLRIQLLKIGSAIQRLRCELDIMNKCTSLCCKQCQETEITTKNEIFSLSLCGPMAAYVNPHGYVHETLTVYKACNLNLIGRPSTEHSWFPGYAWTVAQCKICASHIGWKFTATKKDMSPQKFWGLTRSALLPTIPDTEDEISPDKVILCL
T1 sequence (Q16531 whole entry partner): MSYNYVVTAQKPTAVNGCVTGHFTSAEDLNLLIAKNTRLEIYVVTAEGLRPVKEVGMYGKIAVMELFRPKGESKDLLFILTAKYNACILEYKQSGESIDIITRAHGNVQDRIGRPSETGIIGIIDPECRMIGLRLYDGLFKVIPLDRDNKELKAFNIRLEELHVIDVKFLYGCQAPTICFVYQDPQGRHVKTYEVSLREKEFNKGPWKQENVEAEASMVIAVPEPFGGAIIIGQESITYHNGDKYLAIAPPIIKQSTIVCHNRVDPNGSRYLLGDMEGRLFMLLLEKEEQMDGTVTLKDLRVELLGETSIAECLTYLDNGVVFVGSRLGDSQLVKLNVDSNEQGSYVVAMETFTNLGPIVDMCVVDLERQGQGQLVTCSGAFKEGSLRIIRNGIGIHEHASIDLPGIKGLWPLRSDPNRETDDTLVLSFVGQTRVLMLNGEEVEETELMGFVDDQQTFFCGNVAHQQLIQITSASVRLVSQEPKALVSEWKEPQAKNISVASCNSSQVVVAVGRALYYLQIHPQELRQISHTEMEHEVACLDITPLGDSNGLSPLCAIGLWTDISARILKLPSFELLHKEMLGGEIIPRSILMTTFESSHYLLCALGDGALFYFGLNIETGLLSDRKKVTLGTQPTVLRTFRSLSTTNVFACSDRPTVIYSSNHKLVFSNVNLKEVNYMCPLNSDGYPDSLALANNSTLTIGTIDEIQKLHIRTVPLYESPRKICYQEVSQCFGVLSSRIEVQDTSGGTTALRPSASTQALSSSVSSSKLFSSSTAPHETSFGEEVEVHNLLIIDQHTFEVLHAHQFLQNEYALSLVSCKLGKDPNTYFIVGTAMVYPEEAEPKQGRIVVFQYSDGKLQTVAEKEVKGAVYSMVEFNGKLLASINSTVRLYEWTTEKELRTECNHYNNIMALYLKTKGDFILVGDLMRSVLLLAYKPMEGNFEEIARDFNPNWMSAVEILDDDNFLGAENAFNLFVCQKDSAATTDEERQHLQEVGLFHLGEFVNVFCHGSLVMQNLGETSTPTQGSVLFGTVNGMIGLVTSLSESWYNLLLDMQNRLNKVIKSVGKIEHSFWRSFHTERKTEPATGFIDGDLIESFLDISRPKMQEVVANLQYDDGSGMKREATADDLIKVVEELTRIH
Briefly: BRAF V600E HiBiT Degradation Assay. It is filed as cell-based. The method, boiled down:
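Endogenous HiBiT knock-in on BRAF V600E in A375 cells (clone A375.10); 11-point half-log series, top 10 μM, 2, 6 or 24 h at 37° C. Lytic HiBiT luminescence, background-subtracted, normalized to DMSO; 4-parameter fit gives DC50, Emax (residual protein) and IP (inflection point).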
For orientation: With HiBiT, luminescence reflects the tagged protein that the partner subunit can reach.

The subject of assay [2] is A375-NRAS^Q61K cells. Briefly: CTGlo Cell Viability Assay, A375-NRAS^Q61K (A375.11) cells, 96 hours. Type of assay: cell-based, human. To be noted: A375.11 (A375-NRAS^Q61K) cells; for CTGlo A375.11 96 hours Emax / Emax: lowest % viability achieved. In a few lines: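 A375 cells carrying BRAF V600E and NRAS Q61K were seeded at 250 cells/well with a 10-point half-log dose series (max 10 μM final). After 96 h at 37 °C, viability was read as ATP luminescence (CellTiter-Glo), background-subtracted and normalized to DMSO (100%). GI50 from 4-parameter fit; Emax is the lowest % viability.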

Where [3] appears, read: A375.10 cells, BRAF V600E, 2 hours, inflection point, read-out: HiBiT-Degradation A375.10 BRAF 2 hours IP.
The mark [4] stands for this setting: A375.10 cells, BRAF V600E, 2 hours, read-out: HiBiT-Degradation A375.10 BRAF 2 hours DC50.
The mark [5] stands for this setting: A375.10 cells, BRAF V600E, 2 hours, residual protein remaining, read-out: HiBiT-Degradation A375.10 BRAF 2 hours Emax.
Where [6] appears, read: A375.10 cells, HiBiT, BRAF V600E, 24 hours, read-out: HiBiT-Degradation A375.10 BRAF 24 hours DC50.
Where [7] appears, read: A375.10 cells, HiBiT, BRAF V600E, 24 hours, read-out: HiBiT-Degradation A375.10 BRAF 24 hours Emax.
The mark [8] stands for this setting: A375.10 cells, HiBiT, BRAF V600E, 24 hours, read-out: HiBiT-Degradation A375.10 BRAF 24 hours IP.
Where [9] appears, read: A375.10 cells, BRAF V600E, 2 hours, residual protein remaining.

As to `CCN(C)S(=O)(=O)Nc1ccc(F)c(Oc2ccc3ncc(OC4CC5(CCN(C6CCC(c7cc8c(cc7F)c(N7CCC(=O)NC7=O)nn8C)CC6)CC5)C4)nc3c2)c1C#N` (single isomer, unassigned) [Compound 219, 7-[2-cyano-3-[[ethyl(methyl)sulfamoyl]amino]-6-fluoro-phenoxy]-2-[[7-[4-[3-(2,4-dioxohexahydropyrimidin-1-yl)-5-fluoro-1-methyl-indazol-6-yl]cyclohexyl]-7-azaspiro[3.5]nonan-2-yl]oxy]quinoxaline], the “HiBiT-Degradation A375.10 BRAF 2 hours Emax” value in assay [1] is “** (<90% and >50%)”. Also, the DC50 in assay [1] (setting [3]) and in assay [1] (setting [4]) was less than 1000 nM in each case. Moreover, the GI50 in assay [2] is greater than 10000 nM. Further, in assay [2], the “CTGlo A375.11 96 hours Emax” value is listed as “*** (<=50%)”.
Consider `CCN(C)S(=O)(=O)Nc1ccc(F)c(Oc2ccc3ncc(OCC4CCN(C5CC6(C5)CN(c5cc7c(cc5F)c(N5CCC(=O)NC5=O)nn7C)C6)CC4)nc3c2)c1C#N` [Compound 223, 7-[2-cyano-3-[[ethyl(methyl)sulfamoyl]amino]-6-fluoro-phenoxy]-2-[[1-[2-[3-(2,4-dioxohexahydropyrimidin-1-yl)-5-fluoro-1-methyl-indazol-6-yl]-2-azaspiro[3.3]heptan-6-yl]-4-piperidyl]methoxy]quinoxaline], for which the DC50 in assay [1] (setting [3]) and in assay [1] (setting [4]) was less than 1000 nM throughout. In addition, the Emax was less than 50% in assay [1] (setting [5]) and 50 to 90% in assay [2] (Homo sapiens, 96 h). Also, the GI50 in assay [2] (Homo sapiens, 96 h) is 1000 to 10000 nM.
Regarding `CCN(C)S(=O)(=O)Nc1ccc(F)c(Oc2ccc3ncnc(OC4CC5(CCN(C6CCC(c7cc8c(cc7F)c(N7CCC(=O)NC7=O)nn8C)CC6)CC5)C4)c3c2)c1C#N` (single isomer, unassigned) [Compound 243, 6-[2-cyano-3-[[ethyl(methyl)sulfamoyl]amino]-6-fluoro-phenoxy]-4-[[7-[4-[3-(2,4-dioxohexahydropyrimidin-1-yl)-5-fluoro-1-methyl-indazol-6-yl]cyclohexyl]-7-azaspiro[3.5]nonan-2-yl]oxy]quinazoline], the DC50 in assay [1] (setting [3]) was less than 1000 nM; in assay [1] (setting [4]), 1000 to 10000 nM. For the same compound, the Emax in assay [1] (setting [5]) fell in the range of 50 to 90%; in assay [2] (Homo sapiens, 96 h), 50 to 90%. In assay [2] (Homo sapiens, 96 h), this compound displayed a concentration for 50% growth inhibition (GI50) of 1000 to 10000 nM.
Turning to `CCN(C)S(=O)(=O)Nc1ccc(F)c(Oc2ccc3ncc([C@H]4COC5(CCN(C6CCC(c7ccc(NC8CCC(=O)NC8=O)cc7F)CC6)CC5)C4)nc3c2)c1C#N` (single isomer, unassigned) [Compound 59], the “HiBiT-Degradation A375.10 BRAF 2 hours Emax” value in assay [1] is “** (<90% and >50%)”. For the same compound, the DC50 in assay [1] (setting [3]) is less than 1000 nM. Moreover, the DC50 in assay [1] (setting [4]) was less than 1000 nM. In assay [2], the 50% growth inhibitory concentration (GI50) is 1000 to 10000 nM; the “CTGlo A375.11 96 hours Emax” value was “** (<90% and >50%)”.
Take `CCN(C)S(=O)(=O)Nc1ccc(F)c(Oc2ccc3ncc(C4CC5(C4)CN(C4CCC(c6cc7c(cc6F)c(N6CCC(=O)NC6=O)nn7C)CC4)C5)nc3c2)c1C#N` (single isomer, unassigned) [Compound 297, 7-[2-cyano-3-[[ethyl(methyl)sulfamoyl]amino]-6-fluoro-phenoxy]-2-[2-[4-[3-(2,4-dioxohexahydropyrimidin-1-yl)-5-fluoro-1-methyl-indazol-6-yl]cyclohexyl]-2-azaspiro[3.3]heptan-6-yl]quinoxaline]: the DC50 in assay [1] (setting [3]) was less than 1000 nM; in assay [1] (setting [4]) it was 1000 to 10000 nM; in assay [1] (setting [6]) it was less than 1000 nM; in assay [1] (setting [8]), less than 1000 nM. Further, the Emax was 50 to 90% in assay [1] (setting [5]); less than 50% in assay [1] (setting [7]); 50 to 90% in assay [2] (Homo sapiens, 96 h). The same compound had a GI50 in assay [2] (Homo sapiens, 96 h) of 1000 to 10000 nM.
For the compound `CCN(C)S(=O)(=O)Nc1ccc(F)c(Oc2ccc3ncc(CCC4CCN(C5CCC(c6ccc(NC7CCC(=O)NC7=O)cc6F)CC5)CC4)nc3c2)c1C#N` (single isomer, unassigned) [Compound 132, 7-[2-cyano-3-[[ethyl(methyl)sulfamoyl]amino]-6-fluoro-phenoxy]-2-[2-[1-[4-[4-[(2,6-dioxo-3-piperidyl)amino]-2-fluoro-phenyl]cyclohexyl]-4-piperidyl]ethyl]quinoxaline], the DC50 in assay [1] (setting [3]) is less than 1000 nM. In assay [1] (setting [4]), the DC50 is less than 1000 nM. Also, in assay [1] (setting [9]), the “HiBiT-Degradation A375.10 BRAF 2 hours Emax” value was “*** (<=50%)”. Besides, in assay [2], the GI50 was less than 1000 nM; the “CTGlo A375.11 96 hours Emax” value was “** (<90% and >50%)”.
On to `CCN(C)S(=O)(=O)Nc1ccc(F)c(Oc2ccc3ncn(C4CC5(CCN(C6COC7(CCN(c8cc9c(cc8F)c(N8CCC(=O)NC8=O)nn9C)CC7)C6)CC5)C4)c(=O)c3c2)c1C#N` (centres unmarked) [Compound 216], for which the DC50 in assay [1] (setting [3]) and in assay [1] (setting [4]) was less than 1000 nM in each case. Further, the Emax in assay [1] (setting [5]) is less than 50%; in assay [2] (Homo sapiens, 96 h), 50 to 90%. Also, the GI50 in assay [2] (Homo sapiens, 96 h) is less than 1000 nM.
On to `CCN(C)S(=O)(=O)Nc1ccc(F)c(Oc2ccc3ncn([C@H]4COC5(CCN(CC6CN(c7cc8c(cc7F)c(N7CCC(=O)NC7=O)nn8C)C6)CC5)C4)c(=O)c3c2)c1C#N` [Compound 231, (3R)-3-[6-[2-cyano-3-[[ethyl(methyl)sulfamoyl]amino]-6-fluoro-phenoxy]-4-oxo-quinazolin-3-yl]-8-[[1-[3-(2,4-dioxohexahydropyrimidin-1-yl)-5-fluoro-1-methyl-indazol-6-yl]azetidin-3-yl]methyl]-1-oxa-8-azaspiro[4.5]decane], for which the DC50 in assay [1] (setting [3]), in assay [1] (setting [4]), in assay [1] (setting [6]) and in assay [1] (setting [8]) was less than 1000 nM throughout. In addition, the Emax was 50 to 90% in assay [1] (setting [5]); less than 50% in assay [1] (setting [7]); 50 to 90% in assay [2] (Homo sapiens, 96 h). For the same compound, in assay [2] (Homo sapiens, 96 h), the GI50 lay within 1000 to 10000 nM.
As to `CCN(C)S(=O)(=O)Nc1ccc(F)c(Oc2ccc3ncn(C4CC5(C4)CN(C4CCC(c6cc7c(cc6F)c(N6CCC(=O)NC6=O)nn7C)CC4F)C5)c(=O)c3c2)c1C#N` (single isomer, unassigned) [Compound 300], the DC50 in assay [1] (setting [3]), in assay [1] (setting [4]), in assay [1] (setting [6]) and in assay [1] (setting [8]) was less than 1000 nM each time. Moreover, the “HiBiT-Degradation A375.10 BRAF 2 hours Emax” value in assay [1] (setting [9]) is reported as “*** (<=50%)”. The “HiBiT-Degradation A375.10 BRAF 24 hours Emax” value in assay [1] (A375.10 cells, HiBiT, BRAF V600E, 24 hours) was “*** (<=50%)”. In assay [2], this compound registered a GI50 of less than 1000 nM. Moreover, the “CTGlo A375.11 96 hours Emax” value in assay [2] is “** (<90% and >50%)”.
For the compound `CCN(C)S(=O)(=O)Nc1ccc(F)c(Oc2ccc3ncn(C4CC5(CCN(C6CCC(c7cc8c(cc7F)c(N7CCC(=O)NC7=O)nn8C)CC6F)CC5)C4)c(=O)c3c2)c1F` (single isomer, unassigned) [Compound 185], the DC50 in assay [1] (setting [3]) was less than 1000 nM. Further, the DC50 in assay [1] (setting [4]) was greater than 10000 nM. Further, in assay [1] (setting [9]), the “HiBiT-Degradation A375.10 BRAF 2 hours Emax” value was “** (<90% and >50%)”. Moreover, in assay [2], the GI50 is greater than 10000 nM; the “CTGlo A375.11 96 hours Emax” value is “** (<90% and >50%)”.
As for `CN(CCO)S(=O)(=O)Nc1ccc(F)c(Oc2ccc3ncc([C@@H]4COC5(CCN(C6CCC(c7cc8c(cc7F)c(N7CCC(=O)NC7=O)nn8C)CC6F)CC5)C4)nc3c2)c1C#N` (single isomer, unassigned) [Compound 172], the DC50 in assay [1] (setting [3]) is less than 1000 nM; in assay [1] (setting [4]) it was greater than 10000 nM. Moreover, the Emax fell in the range of 50 to 90% in assay [1] (setting [5]) and 50 to 90% in assay [2] (Homo sapiens, 96 h). Moreover, in assay [2] (Homo sapiens, 96 h), the GI50 is 1000 to 10000 nM.
`CCN(C)S(=O)(=O)Nc1ccc(F)c(Oc2ccc3ncc(OC4CC5(C4)CN(C4CCC(c6cc7c(cc6F)c(N6CCC(=O)NC6=O)nn7C)CC4)C5)nc3c2)c1C#N` (single isomer, unassigned) [Compound 281, 7-[2-cyano-3-[[ethyl(methyl)sulfamoyl]amino]-6-fluoro-phenoxy]-2-[[2-[4-[3-(2,4-dioxohexahydropyrimidin-1-yl)-5-fluoro-1-methyl-indazol-6-yl]cyclohexyl]-2-azaspiro[3.3]heptan-6-yl]oxy]quinoxaline]: the DC50 in assay [1] (setting [3]) is less than 1000 nM; in assay [1] (setting [4]), greater than 10000 nM. Also, the Emax in assay [1] (setting [5]) is 50 to 90%; in assay [2] (Homo sapiens, 96 h), less than 50%. In addition, the GI50 in assay [2] (Homo sapiens, 96 h) was less than 1000 nM.
`CCN(C)S(=O)(=O)Nc1ccc(F)c(Oc2ccc3ncc([C@@H]4COC5(CCN(C6CCC(c7cc8c(cc7F)c(N7CCC(=O)NC7=O)nn8C)CC6F)CC5)C4)nc3c2)c1C#N` (single isomer, unassigned) [Compound 163]: the DC50 in assay [1] (setting [3]) and in assay [1] (setting [4]) was less than 1000 nM each time. Besides, the Emax in assay [1] (read-out: HiBiT-Degradation A375.10 BRAF 2 hours Emax, A375.10 cells, BRAF V600E, 2 hours, residual protein remaining) is less than 50%; in assay [2] (Homo sapiens, 96 h), 50 to 90%. In assay [2] (Homo sapiens, 96 h), this compound displayed a concentration for 50% growth inhibition (GI50) of 1000 to 10000 nM.
